Laboratory results: patent publication US20250092064A1, “BENZOTRIAZOLE COMPOUND” (DAIICHI SANKYO COMPANY, LIMITED, priority 2022, published 2025)

Columns and labels:
[1] = target: binding between Nrf2 and Keap1 (Homo sapiens (Human), UniProt Q14145); assay: FP assay (in vitro): inhibition of Nrf2-Keap1 binding by fluorescence polarization; conditions: GST-fused human Keap1 (325-642) 20 nM, FITC-labeled Nrf2 peptide 10 nM, 2 hr at room temperature
[2] = test system: NQO1 activity in Hepa1c1c7 cells; assay: NAD(P)H: quinone oxidoreductase-1 (NQO1) enzyme induction assay (in vitro); format: cell-based, mouse; conditions: about 48 hr; for fold induction at 0.4 µM: Mus musculus, Hepa-1c1c7, NQO1 activity with 400 nM test compound as a ratio from the base without compound
Method: The NQO1 assay was performed based on a previous report (Methods in Enzymology 2004; 382: 243-258). Hepa1c1c7 cells (mouse hepatocyte cell line, ATCC, cat. no. CRL-2026) were cultured in D-MEM medium containing 10% FBS and 1% penicillin/streptomycin (5% CO2, 37° C.), and seeded into 96-well plates (Corning REF. 353072) at 1×10^4 cells/well. A portion of the wells were prepared with medium only for background measurement without seeding cells. The next day, 400 nM of the test compound (0.004% of the final concentration in DMSO) dissolved in DMSO was added thereto, and the wells were incubated for about 48 hr. A well without adding the test compound was prepared for base activity assay in part. […] After the medium was removed, 50 μL of the cell lysate was added and incubated at 37° C. for 10 minutes, followed by shaking at room temperature for 10 minutes. 200 μL of reaction solution was added thereto, and allowed to stand for 5 minutes at room temperature. 50 μL of the stop solution was added thereto, and absorbance was measured at 610 nm on a SpectraMax PLUS384 (Molecular devices) or […] Pharma Biomedical). The test results were analyzed in Excel, and the NQO1 activity upon addition of 400 nM of test compound was calculated as a ratio from the base without the compound. NQO1 activity ratio when test compound is added=(absorbance when test compound is added-absorbance of medium only)/(absorbance without addition of compound-absorbance of medium only) [numerical formula 2] The results of each test compound in this test are shown in the following Table 2 (A:5<NQO1 activity ratio, B:3<NQO1 activity ratio≤5).

binding between Nrf2 and Keap1, sequence (Q14145 325-624 limits assumed): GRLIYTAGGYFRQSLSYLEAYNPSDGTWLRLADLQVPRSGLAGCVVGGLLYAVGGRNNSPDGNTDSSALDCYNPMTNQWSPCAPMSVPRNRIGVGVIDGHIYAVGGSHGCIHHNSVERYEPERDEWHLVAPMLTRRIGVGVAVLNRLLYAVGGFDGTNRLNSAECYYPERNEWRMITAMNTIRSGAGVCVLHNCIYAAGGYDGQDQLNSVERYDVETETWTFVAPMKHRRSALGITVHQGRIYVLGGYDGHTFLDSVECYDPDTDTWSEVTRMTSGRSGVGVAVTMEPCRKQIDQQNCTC

SMILES | IC50 [1] [nM] | activity ratio ([2]; NQO1 activity with 400 nM test compound as a ratio from the base without compound) | fold induction at 0.4 µM [2]
Cc1c([C@H](CC(=O)O)c2cc(CN3C[C@@H](C4CC4)Oc4ccc(O)nc4C3C)c3sccc3c2)cnc2c1nnn2C (single isomer, unassigned) [Example 86, (3R)-3-(7-{[(2R,5S*)-2-Cyclopropyl-7-hydroxy-5-methyl-2,3-dihydropyrido[2,3-f][1,4]oxazepin-4(5H)-yl]methyl}-1-benzothiophen-5-yl)-3-(3,7-dimethyl-3H-[1,2,3]triazolo[4,5-b]pyridin-6-yl)propanoic acid] | 30 to 100 | A (5<NQO1 activity ratio) | 
Cc1c([C@H](CC(=O)O)c2cc(CN3CC4(CC4)Oc4ccc(O)nc4[C@H]3C)c3sccc3c2)ccc2c1nnn2C (single isomer, unassigned) [Example 88, (3R)-3-(1,4-Dimethyl-1H-benzotriazol-5-yl)-3-(7-{[(5′R*)-7′-hydroxy-5′-methyl-3′H-spiro[cyclopropane-1,2′-pyrido[2,3-f][1,4]oxazepin]-4′(5′H)-yl]methyl}-1-benzothiophen-5-yl)propanoic acid] | 10 to 30 |  | > 5
CC[C@@H]1CN(Cc2cc(C(CC(=O)O)c3cc(O)c4c(nnn4C)c3C)cc3ccsc23)[C@@H](C)c2ncccc2O1 (single isomer, unassigned) [Example 93, (3S*)-3-(7-{[(2R,5S)-2-Ethyl-5-methyl-2,3-dihydropyrido[2,3-f][1,4]oxazepin-4(5H)-yl]methyl}-1-benzothiophen-5-yl)-3-(7-hydroxy-1,4-dimethyl-1H-benzotriazol-5-yl)propanoic acid] | ≤ 10 |  | > 5
CC[C@@H]1CN(Cc2cc([C@@H](CC(=O)O)c3cc(O)c4c(nnn4C)c3C)cc3ccsc23)[C@@H](C)c2ncccc2O1 (single isomer, unassigned) [Example 94, (3R*)-3-(7-{[(2R,5S)-2-Ethyl-5-methyl-2,3-dihydropyrido[2,3-f][1,4]oxazepin-4(5H)-yl]methyl}-1-benzothiophen-5-yl)-3-(7-hydroxy-1,4-dimethyl-1H-benzotriazol-5-yl)propanoic acid] | ≤ 10 |  | > 5
CC[C@@H]1CN(Cc2cc(C(CC(=O)O)c3ccc4c(nnn4C)c3C)cc3ccsc23)S(=O)(=O)c2cc(Cl)cnc2O1 (stereo partly drawn) [Example 1, 3-(7-{[(4R)-8-Chloro-4-ethyl-1,1-dioxido-3,4-dihydro-2H-pyrido[2,3-b][1,4,5]oxathiazepin-2-yl]methyl}-1-benzothiophen-5-yl)-3-(1,4-dimethyl-1H-benzotriazol-5-yl)propanoic acid] | 30 to 100 |  | > 5
CC[C@@H]1CN(Cc2cc(C(CC(=O)O)c3ccc4c(nnn4C)c3Cl)cc3ccsc23)S(=O)(=O)c2cc(Cl)cnc2O1 (stereo partly drawn) [Example 2, 3-(7-{[(4R)-8-Chloro-4-ethyl-1,1-dioxido-3,4-dihydro-2H-pyrido[2,3-b][1,4,5]oxathiazepin-2-yl]methyl}-1-benzothiophen-5-yl)-3-(4-chloro-1-methyl-1H-benzotriazol-5-yl)propanoic acid] | 10 to 30 |  | > 5
C[C@@H]1CN(Cc2cc(C(CC(=O)O)c3ccc4c(nnn4C)c3F)cc3c2CCC3)S(=O)(=O)c2ccccc2O1 (stereo partly drawn) [Example 6, 3-(4-Fluoro-1-methyl-1H-benzotriazol-5-yl)-3-(7-{[(4R)-4-methyl-1,1-dioxido-3,4-dihydro-2H-5,1,2-benzoxathiazepin-2-yl]methyl}-2,3-dihydro-1H-inden-5-yl)propanoic acid] | ≤ 10 |  | > 5
CC[C@@H]1CN(Cc2cc(C(CC(=O)O)c3ccc4c(nnn4C)c3C)cc3c2CCC3)S(=O)(=O)c2cc(Cl)c(F)cc2O1 (stereo partly drawn) [Example 13, 3-(7-{[(4R)-8-Chloro-4-ethyl-7-fluoro-1,1-dioxido-3,4-dihydro-2H-5,1,2-benzoxathiazepin-2-yl]methyl}-2,3-dihydro-1H-inden-5-yl)-3-(1,4-dimethyl-1H-benzotriazol-5-yl)propanoic acid] | ≤ 10 |  | > 5
CCOc1cc2c(cc1Cl)S(=O)(=O)N(Cc1cc(C(CC(=O)O)c3ccc4c(nnn4C)c3C)cc3c1CCC3)C[C@@H](CC)O2 (stereo partly drawn) [Example 18, 3-(7-{[(4R)-8-Chloro-7-ethoxy-4-ethyl-1,1-dioxido-3,4-dihydro-2H-5,1,2-benzoxathiazepin-2-yl]methyl}-2,3-dihydro-1H-inden-5-yl)-3-(1,4-dimethyl-1H-benzotriazol-5-yl)propanoic acid] | 30 to 100 |  | 3 to 5
CCOc1ccc2c(n1)O[C@H](CC)CN(Cc1cc(C(CC(=O)O)c3ccc4c(nnn4C)c3C)cc3ccsc13)S2(=O)=O (stereo partly drawn) [Example 19, 3-(1,4-Dimethyl-1H-benzotriazol-5-yl)-3-(7-{[(4R)-7-ethoxy-4-ethyl-1,1-dioxido-3,4-dihydro-2H-pyrido[2,3-b][1,4,5]oxathiazepin-2-yl]methyl}-1-benzothiophen-5-yl)propanoic acid] | 10 to 30 |  | > 5

Second part, led by results:

IC50 [1] [nM] | SMILES | activity ratio ([2]; NQO1 activity with 400 nM test compound as a ratio from the base without compound) | fold induction at 0.4 µM [2]
≤ 10 | CC[C@@H]1CN(Cc2cc(C(CC(=O)O)c3ccc4c(nnn4C)c3C)cc3c2CCC3)S(=O)(=O)c2cc(Cl)cnc2O1 (stereo partly drawn) [Example 3, 3-(7-{[(4R)-8-Chloro-4-ethyl-1,1-dioxido-3,4-dihydro-2H-pyrido[2,3-b][1,4,5]oxathiazepin-2-yl]methyl}-2,3-dihydro-1H-inden-5-yl)-3-(1,4-dimethyl-1H-benzotriazol-5-yl)propanoic acid] |  | > 5
10 to 30 | CCOc1ccc2c(n1)O[C@H](CC)CN(Cc1cc(C(CC(=O)O)c3ccc4c(nnn4C)c3C)cc3c1CCC3)S2(=O)=O (stereo partly drawn) [Example 9, 3-(1,4-Dimethyl-1H-benzotriazol-5-yl)-3-(7-{[(4R)-7-ethoxy-4-ethyl-1,1-dioxido-3,4-dihydro-2H-pyrido[2,3-b][1,4,5]oxathiazepin-2-yl]methyl}-2,3-dihydro-1H-inden-5-yl)propanoic acid] |  | > 5
10 to 30 | CC[C@@H]1CN(Cc2cc(C(CC(=O)O)c3ccc4c(nnn4C)c3C)cc3c2CCC3)S(=O)(=O)c2cc(C)cnc2O1 (stereo partly drawn) [Example 10, 3-(1,4-Dimethyl-1H-benzotriazol-5-yl)-3-(7-{[(4R)-4-ethyl-8-methyl-1,1-dioxido-3,4-dihydro-2H-pyrido[2,3-b][1,4,5]oxathiazepin-2-yl]methyl}-2,3-dihydro-1H-inden-5-yl)propanoic acid] |  | > 5
10 to 30 | CC[C@@H]1CN(Cc2cc(C(CC(=O)O)c3ccc4c(nnn4C)c3C)cc3c2CCC3)S(=O)(=O)c2ccc(C)nc2O1 (stereo partly drawn) [Example 11, 3-(1,4-Dimethyl-1H-benzotriazol-5-yl)-3-(7-{[(4R)-4-ethyl-7-methyl-1,1-dioxido-3,4-dihydro-2H-pyrido[2,3-b][1,4,5]oxathiazepin-2-yl]methyl}-2,3-dihydro-1H-inden-5-yl)propanoic acid] |  | > 5
≤ 10 | CC[C@@H]1CN(Cc2cc(C(CC(=O)O)c3ccc4c(nnn4C)c3C)cc3c2CCC3)S(=O)(=O)c2ccccc2O1 (stereo partly drawn) [Example 12, 3-(1,4-Dimethyl-1H-benzotriazol-5-yl)-3-(7-{[(4R)-4-ethyl-1,1-dioxido-3,4-dihydro-2H-5,1,2-benzoxathiazepin-2-yl]methyl}-2,3-dihydro-1H-inden-5-yl)propanoic acid] |  | > 5
10 to 30 | CC[C@@H]1CN(Cc2cc(C(CC(=O)O)c3ccc4c(nnn4C)c3C)cc3c2CCC3)S(=O)(=O)c2cc(Cl)ccc2O1 (stereo partly drawn) [Example 14, 3-(7-{[(4R)-8-Chloro-4-ethyl-1,1-dioxido-3,4-dihydro-2H-5,1,2-benzoxathiazepin-2-yl]methyl}-2,3-dihydro-1H-inden-5-yl)-3-(1,4-dimethyl-1H-benzotriazol-5-yl)propanoic acid] |  | > 5
≤ 10 | CC[C@@H]1CN(Cc2cc(C(CC(=O)O)c3ccc4c(nnn4C)c3C)cc3c2CCC3)S(=O)(=O)c2cccc(Cl)c2O1 (stereo partly drawn) [Example 16, 3-(7-{[(4R)-6-Chloro-4-ethyl-1,1-dioxido-3,4-dihydro-2H-5,1,2-benzoxathiazepin-2-yl]methyl}-2,3-dihydro-1H-inden-5-yl)-3-(1,4-dimethyl-1H-benzotriazol-5-yl)propanoic acid] |  | > 5
≤ 10 | CC[C@@H]1CN(Cc2cc(C(CC(=O)O)c3ccc4c(nnn4C)c3C)cc3c2CCC3)S(=O)(=O)c2c(Cl)cccc2O1 (stereo partly drawn) [Example 17, 3-(7-{[(4R)-9-Chloro-4-ethyl-1,1-dioxido-3,4-dihydro-2H-5,1,2-benzoxathiazepin-2-yl]methyl}-2,3-dihydro-1H-inden-5-yl)-3-(1,4-dimethyl-1H-benzotriazol-5-yl)propanoic acid] |  | 3 to 5
